Read-outs that look alike come from different tables or passages of the source.
What was measured:
[1] = system: panel of 4 panelists; test: Organoleptic test against sucrose and baiyunoside (taste panel); type: in vivo; set-up: key to compared to sucrose*: 3: sweeter than the control solution; 2: sweetness comparable with the control solution; 1: less sweet than the control solution but still sweet; settings: for comment: cooling effect / comment: sweetness relative to Baiyunoside / comment: bitterness / off-taste / comment: lingering / persistence of sweet taste: 0.4 mg/ml (400 ppm) in non-carbonated mineral water; for comment: bitterness / off-taste / comment: lingering / persistence of sweet taste: compounds compared with Baiyunoside; for compared to sucrose*: sweetness score, 0.4 mg/ml (400 ppm) in non-carbonated mineral water vs sucrose 20 mg/ml, 4 panelists
Text: Organoleptic test of the compounds of formula (I) against sucrose and baiyunoside

[2] = literature; printed as "often >100x sweeter than sucrose"; cited from earlier work
[3] = quoted from Tanaka et al.; cited from earlier work
[4] = Solubility in non-carbonated mineral water at the test concentration; settings: 0.4 mg/ml (400 ppm) in non-carbonated mineral water
Experimental: The isolated pure compounds were dissolved in non-carbonated mineral water ("Fonsana Quelle") in a concentration of 0.4 mg/ml (400 ppm).

With `CC1=C(CCc2ccoc2)C2(C)CCC(OC3OC(COS(=O)(=O)O)C(O)C(O)C3O)C(C)(C)C2CC1` (centres unmarked) [Compound C, Baiyunol-3-glucosyl-6'-sulfate] the “comment: cooling effect” value [1] was “Shows a remarkable cooling effect”, the “comment: sweetness relative to Baiyunoside” value [1] was “Sweeter” and the “comment: bitterness / off-taste” value [1] was “less bitter”. The “comment: lingering / persistence of sweet taste” value (from here on “comment: lingering / persistence”) [1] was “less lingering” and the “compared to sucrose*” value [1] was 3.
In the case of `CC1=C(CCc2ccoc2)C2(C)CCC(OC3OC(COS(=O)(=O)O)C(O)C(O)C3OC3OCC(O)C(O)C3O)C(C)(C)C2CC1` (centres unmarked) [Compound A, Baiyunoside-6'-sulfate], the “comment: cooling effect” value [1] is reported as “Shows a remarkable cooling effect”, the “comment: sweetness relative to Baiyunoside” value [1] is reported as “Sweeter” and the “comment: bitterness / off-taste” value [1] is reported as “less bitter”. The “comment: lingering / persistence” value [1] was “less lingering” and the “compared to sucrose*” value [1] was 3.
For `C[C@H](CC[C@@H](O[C@@H]1O[C@H](CO[C@@H]2O[C@H](CO)[C@@H](O)[C@H](O)[C@H]2O)[C@@H](O)[C@H](O)[C@H]1O[C@@H]1O[C@H](CO)[C@@H](O)[C@H](O)[C@H]1O)C(C)(C)O)[C@H]1CC[C@@]2(C)[C@@H]3CC=C4[C@@H](CC[C@H](O[C@@H]5O[C@H](CO)[C@@H](O[C@@H]6O[C@H](CO)[C@@H](O)[C@H](O)[C@H]6O)[C@H](O)[C@H]5O)C4(C)C)[C@]3(C)[C@H](O)C[C@]12C` [iso-mogroside V], the “sweetness relative to sucrose” value [2] is given as greater than 100 x.
For Baiyunoside [reference compound], the “comment: bitterness / off-taste” value [1] was “bitter and licorice off-taste”, the “comment: lingering / persistence” value [1] was “very long lingering and persistent sweet taste” and the “sweetness compared with the sucrose solution (in words)” value ([1]; Baiyunoside solution at nominal 0.4 mg/ml, not completely dissolved, vs sucrose 20 mg/ml) was “comparable to the sweetness of the sucrose solution”. The duration of sweetness [3] was “more than one h”, the “sweetness relative to sucrose” value [3] was “about 500 times” and the solubility [4] was “not completely soluble”.
For `CC1=C(CCc2ccoc2)C2(C)CCC(OC3OC(CO)C(O)C(OS(=O)(=O)O)C3OC3OCC(O)C(O)C3O)C(C)(C)C2CC1` (centres unmarked) [Compound B, Baiyunoside-3'-sulfate], the “comment: cooling effect” value [1] was “Shows a remarkable cooling effect”, the “comment: sweetness relative to Baiyunoside” value [1] was “Sweeter” and the “comment: bitterness / off-taste” value [1] was “less bitter”. For the same compound, the “comment: lingering / persistence” value [1] was “less lingering” and the “compared to sucrose*” value [1] was 3.
For “Baiyunol-3-(2'-arabinopyranosyl)-glucoside [Compound D]”, the “comment: cooling effect” value [1] was “Shows a remarkable cooling effect”, the “comment: sweetness relative to Baiyunoside” value [1] was “Sweeter” and the “comment: bitterness / off-taste” value [1] was “as bitter as Baiyunoside”. For the same compound, the “comment: lingering / persistence” value [1] was “less lingering”, the “compared to sucrose*” value [1] was 3 and the solubility [4] was “not completely soluble but better soluble than Baiyunoisde”.
For `C[C@H](CC[C@@H](O[C@@H]1O[C@H](CO[C@@H]2O[C@H](CO)[C@@H](O)[C@H](O)[C@H]2O)[C@@H](O)[C@H](O)[C@H]1O[C@@H]1O[C@H](CO)[C@@H](O)[C@H](O)[C@H]1O)C(C)(C)O)[C@H]1CC[C@@]2(C)[C@@H]3CC=C4[C@@H](CC[C@H](O[C@@H]5O[C@H](CO[C@@H]6O[C@H](CO)[C@@H](O)[C@H](O)[C@H]6O)[C@@H](O)[C@H](O)[C@H]5O)C4(C)C)[C@]3(C)[C@H](O)C[C@]12C` [mogroside V], the “sweetness relative to sucrose” value [2] is given as greater than 100 x.

Source: EP3461349A1, “NOVEL DITERPENE GLYCOSIDES AS SWEETENERS OR SWEETENER ENHANCER” (Analyticon Discovery GmbH, priority 2017, dated 2019)
